Test results: ChEMBL document CHEMBL4393664, “2,4-Disubstituted quinazolines targeting breast cancer cells via EGFR-PI3K” (Eur J Med Chem, 2019)
Activity calls are given as the source filed them. The calls are words filed in the database; no cut-off is given here.

Legend:
MDA-MB-231 [1] = assay: Cytotoxicity against human MDA-MB-231 cells assessed as reduction in cell viability after 72 hrs by MTT assay; type: functional, cell-based; settings: MDA-MB-231, 72 h
PC-3 = assay: Cytotoxicity against human PC3 cells assessed as reduction in cell viability after 72 hrs by MTT assay; type: functional, cell-based; settings: PC-3, 72 h
MGC-803 = assay: Cytotoxicity against human MGC803 cells assessed as reduction in cell viability after 72 hrs by MTT assay; type: functional, cell-based; settings: MGC-803, 72 h
MDA-MB-231 [2] = assay: Antiproliferative activity against human MDA-MB-231 cells assessed as reduction in cell viability up to 32 uM by MTT assay; type: functional, cell-based; settings: TDE = time-dependent effect
MDA-MB-231 [3] = assay: Antiproliferative activity against human MDA-MB-231 cells assessed as reduction in cell viability after 24 to 72 hrs by MTT assay; type: functional, cell-based
MDA-MB-231 [4] = assay: Cell cycle arrest in human MDA-MB-231 cells assessed as accumulation at G2 phase at 3 uM after 24 hrs by propidium iodide/RNase A staining-based flow cytometric analysis (reference value: 27.76%); type: functional
MDA-MB-231 [5] = assay: Cell cycle arrest in human MDA-MB-231 cells assessed as accumulation at G1 phase at 6 uM after 24 hrs by propidium iodide/RNase A staining-based flow cytometric analysis (reference value: 49.17%); type: functional
MDA-MB-231 [6] = assay: Cell cycle arrest in human MDA-MB-231 cells assessed as accumulation at G2 phase at 6 uM after 24 hrs by propidium iodide/RNase A staining-based flow cytometric analysis (reference value: 27.76%); type: functional
MDA-MB-231 [7] = assay: Cell cycle arrest in human MDA-MB-231 cells assessed as accumulation at S phase at 6 uM after 24 hrs by propidium iodide/RNase A staining-based flow cytometric analysis (reference value: 23.07%); type: functional
MCF7 [8] = assay: Cell cycle arrest in human MCF7 cells assessed as accumulation at G2 phase at 3 uM after 24 hrs by propidium iodide/RNase A staining-based flow cytometric analysis (reference value: 30.62%); type: functional
MCF7 [9] = assay: Cell cycle arrest in human MCF7 cells assessed as accumulation at G1 phase at 6 uM after 24 hrs by propidium iodide/RNase A staining-based flow cytometric analysis (reference value: 52.21%); type: functional
MCF7 [10] = assay: Cell cycle arrest in human MCF7 cells assessed as accumulation at S phase at 6 uM after 24 hrs by propidium iodide/RNase A staining-based flow cytometric analysis (reference value: 17.17%); type: functional
MCF7 [11] = assay: Cell cycle arrest in human MCF7 cells assessed as accumulation at G1 phase at 12 uM after 24 hrs by propidium iodide/RNase A staining-based flow cytometric analysis (reference value: 52.21%); type: functional
MCF7 [12] = assay: Cell cycle arrest in human MCF7 cells assessed as accumulation at G2 phase at 12 uM after 24 hrs by propidium iodide/RNase A staining-based flow cytometric analysis (reference value: 30.62%); type: functional
MDA-MB-231 [13] = assay: Antimigratory activity against human MDA-MB-231 cells assessed as reduction in scratch healing after 72 hrs by microscopy based scratch wound assay; type: functional, cell-based
MDA-MB-231 [14] = assay: Induction of apoptosis in human MDA-MB-231 cells assessed as increase in nuclear lysis up to 8 uM after 48 hrs by DAPI staining-based fluorescence microscopic method; type: functional, cell-based
MCF7 [15] = assay: Induction of apoptosis in human MCF7 cells assessed as increase in nuclear lysis up to 8 uM after 48 hrs by DAPI staining-based fluorescence microscopic method; type: functional, cell-based
MDA-MB-231 [16] = assay: Induction of apoptosis in human MDA-MB-231 cells assessed as viable cells at 2 uM after 48 hrs by Annexin-V-FITC/propidium iodide staining based flow cytometry (reference value: 92.1%); type: functional; settings: MDA-MB-231, 48 h, read-out: Activity
MDA-MB-231 [17] = assay: Induction of apoptosis in human MDA-MB-231 cells assessed as necrotic cells at 2 uM after 48 hrs by Annexin-V-FITC/propidium iodide staining based flow cytometry (reference value: 1.21%); type: functional
MDA-MB-231 [18] = assay: Induction of apoptosis in human MDA-MB-231 cells assessed as early apoptotic cells at 4 uM after 48 hrs by Annexin-V-FITC/propidium iodide staining based flow cytometry (reference value: 4.33%); type: functional
MDA-MB-231 [19] = assay: Induction of apoptosis in human MDA-MB-231 cells assessed as necrotic cells at 4 uM after 48 hrs by Annexin-V-FITC/propidium iodide staining based flow cytometry (reference value: 1.21%); type: functional
MDA-MB-231 [20] = assay: Induction of apoptosis in human MDA-MB-231 cells assessed as viable cells at 6 uM after 48 hrs by Annexin-V-FITC/propidium iodide staining based flow cytometry (reference value: 92.1%); type: functional; settings: MDA-MB-231, 48 h, read-out: Activity
MDA-MB-231 [21] = assay: Induction of apoptosis in human MDA-MB-231 cells assessed as early apoptotic cells at 6 uM after 48 hrs by Annexin-V-FITC/propidium iodide staining based flow cytometry (reference value: 4.33%); type: functional
MDA-MB-231 [22] = assay: Induction of apoptosis in human MDA-MB-231 cells assessed as necrotic cells at 6 uM after 48 hrs by Annexin-V-FITC/propidium iodide staining based flow cytometry (reference value: 1.21%); type: functional
MCF7 [23] = assay: Induction of apoptosis in human MCF7 cells assessed as viable cells at 2 uM after 48 hrs by Annexin-V-FITC/propidium iodide staining based flow cytometry (reference value: 91.1%); type: functional; settings: MCF7, 48 h, read-out: Activity
MCF7 [24] = assay: Induction of apoptosis in human MCF7 cells assessed as early apoptotic cells at 2 uM after 48 hrs by Annexin-V-FITC/propidium iodide staining based flow cytometry (reference value: 3.05%); type: functional
MCF7 [25] = assay: Induction of apoptosis in human MCF7 cells assessed as necrotic cells at 2 uM after 48 hrs by Annexin-V-FITC/propidium iodide staining based flow cytometry (reference value: 1.57%); type: functional
MCF7 [26] = assay: Induction of apoptosis in human MCF7 cells after 48 hrs by Annexin-V-FITC/propidium iodide staining based flow cytometry; type: functional, cell-based
MDA-MB-231 [27] = assay: Induction of apoptosis in human MDA-MB-231 cells assessed as increase in ROS generation up to 8 uM after 48 hrs by DHE dye-based fluorescence microscopic analysis; type: functional, cell-based
MCF7 [28] = assay: Induction of apoptosis in human MCF7 cells assessed as increase in ROS generation up to 8 uM after 48 hrs by DHE dye-based fluorescence microscopic analysis; type: functional, cell-based
[29] = molecular target: Epidermal growth factor receptor (Homo sapiens) (UniProt P00533); assay: Inhibition of EGFR in human MCF7 cells assessed as reduction in phosphorylated AKT expression after 8 hrs by Western blot analysis; type: cell-based
Chain of Epidermal growth factor receptor (Homo sapiens) (P00533 whole entry): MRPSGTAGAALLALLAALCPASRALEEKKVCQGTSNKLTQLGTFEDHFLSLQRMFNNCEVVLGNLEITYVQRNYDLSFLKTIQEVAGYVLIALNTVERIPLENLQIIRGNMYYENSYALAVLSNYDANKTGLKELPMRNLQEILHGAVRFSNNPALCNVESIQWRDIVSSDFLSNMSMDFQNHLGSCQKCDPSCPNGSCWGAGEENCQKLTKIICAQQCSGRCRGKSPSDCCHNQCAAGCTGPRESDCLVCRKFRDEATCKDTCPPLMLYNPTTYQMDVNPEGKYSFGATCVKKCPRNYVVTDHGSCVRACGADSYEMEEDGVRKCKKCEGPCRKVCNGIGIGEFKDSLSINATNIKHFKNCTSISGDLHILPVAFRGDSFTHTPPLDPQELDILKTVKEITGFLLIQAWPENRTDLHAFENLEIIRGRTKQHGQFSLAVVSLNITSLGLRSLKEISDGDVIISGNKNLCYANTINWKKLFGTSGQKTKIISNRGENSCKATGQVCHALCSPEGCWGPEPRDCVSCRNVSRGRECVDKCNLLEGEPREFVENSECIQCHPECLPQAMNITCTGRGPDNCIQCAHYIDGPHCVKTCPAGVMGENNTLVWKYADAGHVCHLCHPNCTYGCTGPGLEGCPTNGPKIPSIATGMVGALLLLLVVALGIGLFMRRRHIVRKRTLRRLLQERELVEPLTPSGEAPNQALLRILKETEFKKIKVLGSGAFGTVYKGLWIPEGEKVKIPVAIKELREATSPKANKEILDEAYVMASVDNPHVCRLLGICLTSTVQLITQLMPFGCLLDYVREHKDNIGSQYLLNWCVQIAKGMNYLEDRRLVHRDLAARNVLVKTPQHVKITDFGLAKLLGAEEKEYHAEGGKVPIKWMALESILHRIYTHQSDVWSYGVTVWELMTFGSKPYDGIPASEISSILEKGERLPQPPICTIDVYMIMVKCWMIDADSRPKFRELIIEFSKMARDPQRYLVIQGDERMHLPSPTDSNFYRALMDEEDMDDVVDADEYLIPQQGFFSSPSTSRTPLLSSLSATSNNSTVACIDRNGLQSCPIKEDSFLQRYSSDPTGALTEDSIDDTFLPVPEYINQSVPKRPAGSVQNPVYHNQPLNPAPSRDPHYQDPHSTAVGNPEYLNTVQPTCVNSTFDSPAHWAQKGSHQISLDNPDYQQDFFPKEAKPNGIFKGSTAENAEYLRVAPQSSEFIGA

MDA-MB-231 [30] = assay: Effect on total EGFR protein level in human MDA-MB-231 cells up to 12 uM after 8 hrs by Western blot analysis; type: ADME, cell-based; settings: mda-mb-231, 8 h
MDA-MB-231 [31] = assay: Effect on total PI3K protein level in human MDA-MB-231 cells up to 12 uM after 8 hrs by Western blot analysis; type: ADME, cell-based; settings: mda-mb-231, 8 h
MDA-MB-231 [32] = assay: Effect on total AKT protein level in human MDA-MB-231 cells up to 12 uM after 8 hrs by Western blot analysis; type: ADME, cell-based; settings: mda-mb-231, 8 h
MCF7 [33] = assay: Effect on total PI3K protein level in human MCF7 cells up to 12 uM after 8 hrs by Western blot analysis; type: ADME, cell-based; settings: mcf7, 8 h
[34] = molecular target: Epidermal growth factor receptor (Homo sapiens) (UniProt P00533); assay: Inhibition of EGFR phosphorylation at Y1045 residues in human MCF7 cells after 8 hrs by Western blot analysis; type: cell-based

Which IC50 (MDA-MB-231 [1]) does the source give for FC(F)(F)c1ccc(CSc2nc(Nc3ccc(C(F)(F)F)cc3)c3ccccc3n2)cc1 here?
Its IC50 is 5.46 µM.

And the IC50 (PC-3)?
Its IC50 is 7.88 µM.

What about the IC50 (MGC-803) of the same compound?
The IC50 was 6.17 µM.

And the Activity (MDA-MB-231 [2])?
Its Activity is “Tde”.

What about the Activity (MDA-MB-231 [3]) of the same compound?
The Activity was “Dose-dependent effect”.

What about the Activity (MDA-MB-231 [4]) of the same compound?
The Activity was 28.04%.

And the Activity (MDA-MB-231 [5])?
The Activity was 60.7%.

And the Activity (MDA-MB-231 [6])?
The Activity was 21.98%.

What about the Activity (MDA-MB-231 [7]) of the same compound?
The Activity was 17.32%.

What about the Activity (MCF7 [8]) of the same compound?
Its Activity is 20.38%.

What about the Activity (MCF7 [9]) of the same compound?
Its Activity is 65.05%.

And the Activity (MCF7 [10])?
The Activity was 19.52%.

And the Activity (MCF7 [11])?
The Activity was 75.03%.

What about the Activity (MCF7 [12]) of the same compound?
The Activity was 14.32%.

And the Activity (MDA-MB-231 [13])?
The Activity was “Dose-dependent effect”.

And the Activity (MDA-MB-231 [14])?
Its Activity is “Active”.

What about the Activity (MCF7 [15]) of the same compound?
The Activity was “Active”.

What about the viability at 2 µM (MDA-MB-231 [16]) of the same compound?
The viability at 2 µM was 82.9%.

What about the Activity (MDA-MB-231 [17]) of the same compound?
The Activity was 2.6%.

And the Activity (MDA-MB-231 [18])?
The Activity was 10.6%.

What about the Activity (MDA-MB-231 [19]) of the same compound?
The Activity was 3.06%.

And the viability at 6 µM (MDA-MB-231 [20])?
Its viability at 6 µM is 66.5%.

And the Activity (MDA-MB-231 [21])?
The Activity was 10.4%.

And the Activity (MDA-MB-231 [22])?
The Activity was 2.49%.

What about the viability at 2 µM (MCF7 [23]) of the same compound?
The viability at 2 µM was 81.1%.

What about the Activity (MCF7 [24]) of the same compound?
The Activity was 11.4%.

What about the Activity (MCF7 [25]) of the same compound?
Its Activity is 3.28%.

And the Activity (MCF7 [26])?
The Activity was “Dose-dependent effect”.

What about the Activity (MDA-MB-231 [27]) of the same compound?
Its Activity is “Active”.

What about the Activity (MCF7 [28]) of the same compound?
Its Activity is “Active”.

And the inhibition [29]?
The inhibition was “Dose-dependent effect”.

And the Activity (MDA-MB-231 [30])?
Its Activity is “Non-Toxic”.

What about the Activity (MDA-MB-231 [31]) of the same compound?
The Activity was “Non-Toxic”.

What about the Activity (MDA-MB-231 [32]) of the same compound?
Its Activity is “Non-Toxic”.

What about the Activity (MCF7 [33]) of the same compound?
The Activity was “Non-Toxic”.

And the inhibition [34]?
Its inhibition is “Dose-dependent effect”.
